Where “and” joins values, the source holds several entries; their conditions need not be identical. Equal values may be shown once. Inconclusive results and toxic doses are left out.

In the assay the test system is P388 leukemia ip, CD2F1 mice, survival T/C. As to the kind of experiment: NCI In Vivo Anticancer Drug Screen. Data for tumor model P388 Leukemia (intraperitoneal) in CD2F1 (CDF1) mice. To be noted: endpoint: median survival time, higher = longer survival. The procedure, abridged: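 Mice carrying the transplanted tumor received test compound or vehicle. Survival was recorded in each group, and the value is the treated-group measurement divided by that of the vehicle-treated control group.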

Setting [1] is: dose: 60.0 mg/kg/injection, schedule: Q01DX005 (ip), vehicle: Klucel (hydroxypropylcellulose) (HPC).
Setting [2] is: dose: 120.0 mg/kg/injection, schedule: Q01DX005 (ip), vehicle: Klucel (hydroxypropylcellulose) (HPC).
[3] abbreviates: dose: 240.0 mg/kg/injection, schedule: Q01DX005 (ip), vehicle: Klucel (hydroxypropylcellulose) (HPC).
Setting [4] is: dose: 50.0 mg/kg/injection, schedule: Q01DX009 (ip), vehicle: saline with Tween-80.
[5] abbreviates: dose: 100.0 mg/kg/injection, schedule: Q01DX009 (ip), vehicle: saline with Tween-80.
Where [6] appears, read: dose: 100.0 mg/kg/injection, schedule: Q04DX003 (ip), vehicle: saline + Tween-80 + alcohol.
Setting [7] is: dose: 200.0 mg/kg/injection, schedule: Q04DX003 (ip), vehicle: saline + Tween-80 + alcohol.
The mark [8] stands for this setting: dose: 25.0 mg/kg/injection, schedule: Q01DX009 (ip), vehicle: Klucel (hydroxypropylcellulose) (HPC).
Where [9] appears, read: dose: 25.0 mg/kg/injection, schedule: Q01DX009 (ip), vehicle: saline with Tween-80.

With `CC#Cc1ccc(-c2ccccc2)s1`, the T/C is, setting by setting: (dose: 1.0 mg/kg/injection, schedule: Q01DX005 (ip), vehicle: Klucel + Tween-80) 96 % of control; (dose: 2.0 mg/kg/injection, schedule: Q01DX005 (ip), vehicle: Klucel + Tween-80) 98 % of control; (dose: 4.0 mg/kg/injection, schedule: Q01DX005 (ip), vehicle: Klucel + Tween-80) 94 % of control; (dose: 8.0 mg/kg/injection, schedule: Q01DX005 (ip), vehicle: Klucel + Tween-80) 93 % of control.
Consider `CCCCCc1c(C)[nH]n(C(N)=NCCSCc2nc[nH]c2C)c1=O`, for which the T/C was 100 % of control under setting [1], 102 % of control under setting [2] and 91 % of control under setting [3].
For `CCCCOC(=O)c1ccccc1C(=O)O.CCCCOC(=O)c1ccccc1C(=O)O.[Cu+2]`, the T/C was 102 % of control (dose: 6.25 mg/kg/injection, schedule: Q04DX003 (ip), vehicle: saline with Tween-80); 96 % of control (dose: 12.5 mg/kg/injection, schedule: Q04DX003 (ip), vehicle: saline with Tween-80); 102 % of control (dose: 25.0 mg/kg/injection, schedule: Q04DX003 (ip), vehicle: saline with Tween-80).
Consider `Nc1nc(N)c2nc(CN(CCO)c3ccc(C(=O)NC(CCC(=O)O)C(=O)O)cc3)cnc2n1` (stereo unspecified), for which the T/C was 190 % of control (dose: 1.0 mg/kg/injection, schedule: Q01DX009 (ip), vehicle: Klucel (hydroxypropylcellulose) (HPC)); 153 % of control (dose: 1.2 mg/kg/injection, schedule: Q01DX009 (ip), vehicle: Klucel (hydroxypropylcellulose) (HPC)); 181 % of control (dose: 1.8 mg/kg/injection, schedule: Q01DX009 (ip), vehicle: Klucel (hydroxypropylcellulose) (HPC)); 205 % of control (dose: 2.0 mg/kg/injection, schedule: Q01DX009 (ip), vehicle: Klucel (hydroxypropylcellulose) (HPC)); 195 % of control (dose: 2.6 mg/kg/injection, schedule: Q01DX009 (ip), vehicle: Klucel (hydroxypropylcellulose) (HPC)); 204 % of control and 223 % of control (dose: 4.0 mg/kg/injection, schedule: Q01DX009 (ip), vehicle: Klucel (hydroxypropylcellulose) (HPC)). In addition, the T/C (dose: 6.0 mg/kg/injection, schedule: Q01DX009 (ip), vehicle: Klucel (hydroxypropylcellulose) (HPC)) was 92 % of control.
In the case of `COc1cccc(-c2nc3n(n2)CCc2ccccc2-3)c1`, the T/C runs as follows: under setting [4], 105 % of control; under setting [5], 106 % of control; (dose: 200.0 mg/kg/injection, schedule: Q01DX009 (ip), vehicle: saline with Tween-80) 86 % of control.
For `C/C=C/N=NNc1ccccc1`, the T/C is 111 % of control under setting [6]; 112 % of control under setting [7]; 106 % of control (dose: 400.0 mg/kg/injection, schedule: Q04DX003 (ip), vehicle: saline + Tween-80 + alcohol).
On to `C[CH2][Sn]([Cl])([Cl])[CH2]C.c1ccc2nc(-c3ccc4ccccc4n3)ccc2c1`, for which the T/C is 106 % of control under setting [1], 106 % of control under setting [2] and 103 % of control under setting [3].
For the compound `N#CC1(C#N)C2C=CC(C3CCC=C32)C1(C#N)C#N` (stereo unspecified), the T/C by setting is: (dose: 6.25 mg/kg/injection, schedule: Q01DX009 (ip), vehicle: Klucel (hydroxypropylcellulose) (HPC)) 100 % of control; (dose: 12.5 mg/kg/injection, schedule: Q01DX009 (ip), vehicle: Klucel (hydroxypropylcellulose) (HPC)) 110 % of control; under setting [8], 106 % of control.
In the case of `CCC(=O)N(C)C(C)C(=O)OC1CC(=O)N(C)c2cc(cc(OC)c2Cl)CC(CBr)=C/C=C/C(OC)C2(O)CC(OC(=O)N2)C(C)C2OC12C` (stereo unspecified), the T/C (dose: 32.0 micrograms/kg/injection, schedule: Q01DX009 (ip), vehicle: saline + alcohol) was 152 % of control and the T/C (dose: 64.0 micrograms/kg/injection, schedule: Q01DX009 (ip), vehicle: saline + alcohol) is 150 % of control.
For the compound `COc1cc2cc(c1Cl)N1CCC(C)(O)C(=O)NC(C)C(=O)OC(CC1=O)C1(C)OC1C(C)C1CC(O)(NC(=O)O1)C(OC)/C=C\C=C(\C)C2OC` (stereo unspecified), the T/C (dose: 4.0 micrograms/kg/injection, schedule: Q01DX009 (ip), vehicle: distilled water + alcohol) was 150 % of control; the T/C (dose: 16.0 micrograms/kg/injection, schedule: Q01DX009 (ip), vehicle: distilled water + alcohol) is 157 % of control; the T/C (dose: 32.0 micrograms/kg/injection, schedule: Q01DX009 (ip), vehicle: distilled water + alcohol) was 150 % of control.
As to `O=C1OC2(O)c3ccccc3C(=O)N2N2CCCC12` (stereo unspecified), the T/C runs as follows: under setting [1], 109 % of control; under setting [2], 98 % of control; under setting [3], 98 % of control.
On to `CCCc1cc2ccccc2c2ccccc12`, for which the T/C is 102 % of control (dose: 50.0 mg/kg/injection, schedule: Q01DX005 (ip), vehicle: Klucel (hydroxypropylcellulose) (HPC)); 96 % of control (dose: 100.0 mg/kg/injection, schedule: Q01DX005 (ip), vehicle: Klucel (hydroxypropylcellulose) (HPC)); 99 % of control (dose: 200.0 mg/kg/injection, schedule: Q01DX005 (ip), vehicle: Klucel (hydroxypropylcellulose) (HPC)).
`N=C(N)c1ccc2nc(/C=C\c3nc4ccc(C(=N)N)cc4[nH]3)[nH]c2c1`: the T/C reads like this: (dose: 100.0 mg/kg/injection, schedule: Q04DX002 (ip), vehicle: saline) 110 % of control; (dose: 200.0 mg/kg/injection, schedule: Q04DX002 (ip), vehicle: saline) 117 % of control.
As to `O=P(c1ccccc1)(c1ccccc1)c1ccccc1.O=P(c1ccccc1)(c1ccccc1)c1ccccc1.O=P(c1ccccc1)(c1ccccc1)c1ccccc1.O=P(c1ccccc1)(c1ccccc1)c1ccccc1.[Cr+3].[O-][Cl+3]([O-])([O-])O`, the T/C was 101 % of control under setting [6] and 100 % of control under setting [7].
Take `CCOc1c(N=Nc2cccc(Cl)c2)c(-c2ccccc2)nn1C(N)=S`: the T/C is, setting by setting: (dose: 50.0 mg/kg/injection, schedule: Q01DX005 (ip), vehicle: saline with Tween-80) 111 % of control; (dose: 100.0 mg/kg/injection, schedule: Q01DX005 (ip), vehicle: saline with Tween-80) 101 % of control; (dose: 200.0 mg/kg/injection, schedule: Q01DX005 (ip), vehicle: saline with Tween-80) 96 % of control.
For `CN(C)N1C(=O)C(c2ccccc2)(c2ccccc2)CSC1=S`, the T/C by setting is: (dose: 50.0 mg/kg/injection, schedule: Q01DX009 (ip), vehicle: Klucel (hydroxypropylcellulose) (HPC)) 108 % of control; (dose: 100.0 mg/kg/injection, schedule: Q01DX009 (ip), vehicle: Klucel (hydroxypropylcellulose) (HPC)) 100 % of control; (dose: 200.0 mg/kg/injection, schedule: Q01DX009 (ip), vehicle: Klucel (hydroxypropylcellulose) (HPC)) 101 % of control.
Take `C[CH2][Pb]([CH2]C)([CH2]C)[n]1cnc2ccccc21`: the T/C (dose: 0.75 mg/kg/injection, schedule: Q01DX009 (ip), vehicle: Klucel (hydroxypropylcellulose) (HPC)) was 99 % of control; the T/C (dose: 1.5 mg/kg/injection, schedule: Q01DX009 (ip), vehicle: Klucel (hydroxypropylcellulose) (HPC)) was 118 % of control; the T/C (dose: 3.0 mg/kg/injection, schedule: Q01DX009 (ip), vehicle: Klucel (hydroxypropylcellulose) (HPC)) was 118 % of control; the T/C (dose: 3.12 mg/kg/injection, schedule: Q04DX003 (ip), vehicle: Klucel (hydroxypropylcellulose) (HPC)) is 96 % of control; the T/C (dose: 6.25 mg/kg/injection, schedule: Q04DX003 (ip), vehicle: Klucel (hydroxypropylcellulose) (HPC)) is 114 % of control; the T/C (dose: 12.5 mg/kg/injection, schedule: Q04DX003 (ip), vehicle: Klucel (hydroxypropylcellulose) (HPC)) was 92 % of control.
As to `[Cl][Pt+2][Cl].[NH-]CC([NH-])CN`, the T/C (dose: 6.25 mg/kg/injection, schedule: Q04DX003 (ip), vehicle: saline) is 101 % of control; the T/C (dose: 12.5 mg/kg/injection, schedule: Q04DX003 (ip), vehicle: saline) is 111 % of control; the T/C (dose: 25.0 mg/kg/injection, schedule: Q04DX003 (ip), vehicle: saline) is 107 % of control.
On to `OC1CC2CC1C1C3C=CC(C3)C21` (stereo unspecified), for which the T/C by setting is: (dose: 6.25 mg/kg/injection, schedule: Q01DX009 (ip), vehicle: saline with Tween-80) 104 % of control; (dose: 12.5 mg/kg/injection, schedule: Q01DX009 (ip), vehicle: saline with Tween-80) 102 % of control; under setting [9], 102 % of control.
`CC(=O)OCC1=CCCC1=O`: the T/C under setting [8] is 111 % of control.
Turning to `O=C(CC(=O)C(F)(F)F)c1cc2ccccc2s1`, the T/C by setting is: under setting [9], 113 % of control; under setting [4], 96 % of control; under setting [5], 115 % of control.

(Values after PubChem BioAssay AID330 (DTP/NCI, 2004).)
